Type in all cases: functional, organism-based
Experiment [1] concerns Escherichia coli. The experiment is described as follows: The ability of the artificial siderophores to support the growth of Escherichia coli strain RWB7 was evaluated at the concentration of 50 uM; No growth around the disc.
Experiment [2] deals with Escherichia coli. The experiment is described as follows: The ability of the artificial siderophores to support the growth of Escherichia coli strain BN 3300 was evaluated at the concentration of 50 uM; No growth around the disc.
Experiment [3] has as its system Escherichia coli. Description: The ability of the artificial siderophores to support the growth of Escherichia coli strain BN 3306 was evaluated at the concentration of 50 uM; No growth around the disc.
Experiment [4] has as its system Escherichia coli. Description: The ability of the artificial siderophores to support the growth of Escherichia coli strain RWB7 was evaluated at the concentration of 25 uM; No growth around the disc.
Experiment [5] has as its system Escherichia coli. The experiment is described as follows: The ability of the artificial siderophores to support the growth of Escherichia coli strain AN 193 was evaluated at the concentration of 50 uM; No growth around the disc.
Experiment [6] deals with Escherichia coli. The experiment is described as follows: The ability of the artificial siderophores to support the growth of Escherichia coli strain AN 193 was evaluated at the concentration of 50 and 500 uM; No growth around the disc.
Experiment [7] relates to Escherichia coli. Description: The ability of the artificial siderophores to support the growth of Escherichia coli strain RW 193 was evaluated at the concentration of 50 and 500 uM; No growth around the disc.
Experiment [8] concerns Escherichia coli. The experiment is described as follows: The ability of the artificial siderophores to support the growth of Escherichia coli strain BN 3300 was evaluated at the concentration of 50 and 500 uM; No growth around the disc.
Experiment [9] concerns Escherichia coli. The experiment is described as follows: The ability of the artificial siderophores to support the growth of Escherichia coli strain BN 3306 was evaluated at the concentration of 50 and 500 uM; No growth around the disc.
Experiment [10] concerns Escherichia coli. Description: The ability of the artificial siderophores to support the growth of Escherichia coli strain RWB7 was evaluated at the concentration of 50 and 500 uM; No growth around the disc.

As for `CC(=O)N(O)CCC[C@@H]1NC(=O)[C@H](CCCN(O)C(C)=O)NC1=O`, the Inhibitory diameter result in experiment [1], in [2] and in experiment [3] was “Not toxic” each time.

For the compound `O=C(N[C@H]1COC(=O)[C@@H](NC(=O)c2cccc(O)c2O)COC(=O)[C@@H](NC(=O)c2cccc(O)c2O)COC1=O)c1cccc(O)c1O`, the Inhibitory diameter result in experiment [4] was “Not toxic”.

Regarding FERRICHROME, the Inhibitory diameter entry in experiment [5], in experiment [1], in experiment [2] and in experiment [3] was “Not toxic” in each case.

On to `CN(O)C(=O)CCCCCn1c(=O)[nH]c(=O)n(CCCCCC(=O)N(C)O)c1=O`, for which the Inhibitory diameter entry in experiment [6], in experiment [7], in experiment [8], in [9] and in [10] was “Not toxic” throughout.

For `CN(O)C(=O)CCCCCn1c(=O)n(CCCCCC(=O)N(C)O)c(=O)n(CCCCCC(=O)N(C)O)c1=O`, the Inhibitory diameter result in [6], in [8], in experiment [9] and in experiment [10] was “Not toxic” each time.

For `CC(=O)N(O)CCCCCn1c(=O)n(CCCCCN(O)C(C)=O)c(=O)n(CCCCCN(O)C(C)=O)c1=O`, the Inhibitory diameter result in experiment [6] and in [10] was “Not toxic” each time.

On to `CC(=O)N(O)CCCCn1c(=O)n(CCCCN(O)C(C)=O)c(=O)n(CCCCN(O)C(C)=O)c1=O`, for which, in [10], the Inhibitory diameter entry was “Not toxic”.

As for `CC(=O)N(O)CCCn1c(=O)n(CCCN(O)C(C)=O)c(=O)n(CCCN(O)C(C)=O)c1=O`, the Inhibitory diameter result in experiment [6] and in [10] was “Not toxic” in each case.

These data come from ChEMBL document CHEMBL1122957, “Artificial siderophores. 2. Syntheses of trihydroxamate analogues of rhodotorulic acid and their biological iron transport capabilities in Escherichia coli” (1985).
